These results are taken from ChEMBL document CHEMBL4513135, “CO-ADD screening of IQOG CSIS (Spain) compounds”.

In brackets after ≈: the same amount, converted by molar mass.

One may read the CC50 as the concentration at which the toxic effect on the cells reaches its halfway point.

The test system of one test is Acinetobacter baumannii. Put plainly: microbe, parasite or virus in culture. To be noted: ATCC 19606, 18 h, ASSAY_TEST Inhibition of Bacterial Growth, detection method Absorption (OD600), MEDIA CAMHB, plate type 384well, NBS, CORNING #3640.
Another test deals with Staphylococcus aureus. The experiment in a line: microbe, parasite or virus in culture. The settings on record: ATCC 43300, 18 h, ASSAY_TEST Inhibition of Bacterial Growth, detection method Absorption (OD600), MEDIA CAMHB, plate type 384well, NBS, CORNING #3640.
In another test the test system is Pseudomonas aeruginosa. The experiment in a line: microbe, parasite or virus in culture. The settings on record: ATCC 27853, 18 h, ASSAY_TEST Inhibition of Bacterial Growth, detection method Absorption (OD600), MEDIA CAMHB, plate type 384well, NBS, CORNING #3640.
In another test the test system is HEK293. Put plainly: cells. The class given is functional. The settings on record: Homo sapiens, ATCC CRL1573, HEK293; ASSAY_TEST Inhibition of Cell Viability; detection method Resazurin; Fluorescence (ex560/em590); MEDIA DMEM with 10% FBS; plate type 384well; TC; CORNING #3712; time 18 hr.
For the next test, the system named is Candida albicans. The experiment in a line: microbe, parasite or virus in culture. To be noted: ATCC 90028, ASSAY_TEST Inhibition of Fungal Growth, detection method Absorption (OD530), plate type 384well, NBS, CORNING #3640.
For the next test, the system named is Klebsiella pneumoniae. Put plainly: microbe, parasite or virus in culture. To be noted: ATCC 700603, 18 h, ASSAY_TEST Inhibition of Bacterial Growth, detection method Absorption (OD600), MEDIA CAMHB, plate type 384well, NBS, CORNING #3640.
The subject of another test is Escherichia coli. The experiment in a line: microbe, parasite or virus in culture. The settings on record: ATCC 25922, 18 h, ASSAY_TEST Inhibition of Bacterial Growth, detection method Absorption (OD600), MEDIA CAMHB, plate type 384well, NBS, CORNING #3640.

Description for Acinetobacter baumannii: Antibacterial activity against Acinetobacter baumannii ATCC 19606 (CO-ADD:GN_034); MIC in CAMBH media using NBS plates, by OD600
Description for Candida albicans: Antifungal activity against Candida albicans ATCC 90028 (CO-ADD:FG_001); MIC in YNB media using NBS plates, by OD630
Description for Cryptococcus neoformans: Antifungal activity against Cryptococcus neoformans H99 ATCC 208821 (CO-ADD:FG_002); MIC in YNB media using NBS plates, by Resazurin OD(600-570)
Description for Escherichia coli: Antibacterial activity against Escherichia coli ATCC 25922 (CO-ADD:GN_001); MIC in CAMBH media using NBS plates, by OD(600)
Description for Klebsiella pneumoniae: Antibacterial activity against Klebsiella pneumoniae MDR ATCC 70063 (CO-ADD:GN_003); MIC in CAMBH media using NBS plates, by OD(600)
Description for Pseudomonas aeruginosa: Antibacterial activity against Pseudomonas aeruginosa ATCC 27853 (CO-ADD:GN_042); MIC in CAMBH media using NBS plates, by OD(600)
Description for Staphylococcus aureus: Antibacterial activity against Staphylococcus aureus MRSA ATCC 43300 (CO-ADD:GP_020); MIC in CAMBH media, using NBS plates, by OD(600)

For the compound `C#CCN(C)c1nc(N)c(C#N)c(-c2ccccc2)c1C#N`, the MIC with Cryptococcus neoformans, in the test with Acinetobacter baumannii, with Staphylococcus aureus, in the test with Pseudomonas aeruginosa, against Candida albicans and against Klebsiella pneumoniae was greater than 32 µg/mL each time. Besides, the MIC with Escherichia coli is greater than 32 µg/mL. This compound gave a CC50 with HEK293 greater than 32 µg/mL.
In the case of `CCOC(=O)C(=Cc1ccccc1)C(C)=O`, the MIC in the test on Cryptococcus neoformans was 8 µg/mL (≈ 36.7 µM); against Acinetobacter baumannii, greater than 32 µg/mL; with Staphylococcus aureus, greater than 32 µg/mL; in the test on Pseudomonas aeruginosa it was greater than 32 µg/mL; in the test with Candida albicans, 16 µg/mL (≈ 73.3 µM); with Klebsiella pneumoniae it was greater than 32 µg/mL. The same compound returned an MIC in the test on Escherichia coli greater than 32 µg/mL. In the test on HEK293, the CC50 was 13.5 µg/mL (≈ 61.9 µM).
Turning to `CC1CC(=O)Nc2c1c(Br)nc1nc3c(c(N)c21)CCCC3` (centres undefined), the MIC in the test on Cryptococcus neoformans, against Acinetobacter baumannii, in the test with Staphylococcus aureus, against Pseudomonas aeruginosa, against Candida albicans and against Klebsiella pneumoniae was greater than 32 µg/mL throughout. Besides, the MIC against Escherichia coli is greater than 32 µg/mL. In addition, the CC50 with HEK293 was determined as 4.01 µg/mL (≈ 11.1 µM).
Turning to `CCOC(=O)c1c(C)nc(NCCCCC2CCN(Cc3ccccc3)CC2)c(C#N)c1-c1ccccc1`, the MIC against Cryptococcus neoformans, against Acinetobacter baumannii, in the test with Staphylococcus aureus, in the test on Pseudomonas aeruginosa, in the test with Candida albicans and with Klebsiella pneumoniae was greater than 32 µg/mL throughout. In the test with Escherichia coli, this compound returned an MIC greater than 32 µg/mL. The CC50 in the test on HEK293 came out at 18.8 µg/mL (≈ 36.8 µM).
Turning to `CC(C)(C)OC(=O)n1c(COC(=O)NC2CCN(Cc3ccccc3)CC2)cc2cc(OCc3ccccc3)ccc21.O=C(O)C(=O)O`, the MIC was 16 µg/mL against Cryptococcus neoformans; greater than 32 µg/mL in the test with Acinetobacter baumannii; greater than 32 µg/mL in the test with Staphylococcus aureus; greater than 32 µg/mL with Pseudomonas aeruginosa; 32 µg/mL against Candida albicans; greater than 32 µg/mL against Klebsiella pneumoniae. The same compound came in with an MIC against Escherichia coli greater than 32 µg/mL. The compound also yielded a CC50 with HEK293 of 9.19 µg/mL.
For `Cl.Oc1ccc(CCl)c2cccnc12`, the MIC with Cryptococcus neoformans is 1 µg/mL; against Acinetobacter baumannii it was greater than 32 µg/mL; against Staphylococcus aureus, 4 µg/mL; with Pseudomonas aeruginosa it was 32 µg/mL; against Candida albicans, 16 µg/mL; with Klebsiella pneumoniae, greater than 32 µg/mL. The compound further showed an MIC in the test with Escherichia coli greater than 32 µg/mL. This compound returned a 50% cytotoxic concentration (CC50) in the test with HEK293 of 2.26 µg/mL.
On to `COc1nc(Cl)c(C#N)cc1C#N`, for which the MIC against Cryptococcus neoformans was greater than 32 µg/mL; in the test with Acinetobacter baumannii, greater than 32 µg/mL; in the test with Staphylococcus aureus, greater than 32 µg/mL; in the test with Pseudomonas aeruginosa, greater than 32 µg/mL; with Candida albicans, 16 µg/mL (≈ 82.6 µM); in the test on Klebsiella pneumoniae, greater than 32 µg/mL. In the test on Escherichia coli, this compound displayed an MIC greater than 32 µg/mL. Moreover, it took 0.56 µg/mL (≈ 2.89 µM) to reach half-maximal cytotoxicity in the test on HEK293 (CC50).
For `CN(Cc1cn(-c2ccccc2)nn1)Cc1cc2cc(OCCCC3CCN(Cc4ccccc4)CC3)ccc2n1C.Cl`, the MIC against Cryptococcus neoformans, in the test on Acinetobacter baumannii, against Staphylococcus aureus, against Pseudomonas aeruginosa, in the test on Candida albicans and with Klebsiella pneumoniae was greater than 32 µg/mL each time. The compound further gave an MIC against Escherichia coli greater than 32 µg/mL. In the test with HEK293, this compound had a CC50 of 3.55 µg/mL.
In the case of `Cc1ccc2nc(Cl)c(C=O)cc2c1`, the MIC in the test with Cryptococcus neoformans is 32 µg/mL (≈ 156 µM); with Acinetobacter baumannii it was greater than 32 µg/mL; with Staphylococcus aureus, greater than 32 µg/mL; in the test on Pseudomonas aeruginosa, greater than 32 µg/mL; against Candida albicans, greater than 32 µg/mL; against Klebsiella pneumoniae it was greater than 32 µg/mL. In the test on Escherichia coli, this compound showed an MIC greater than 32 µg/mL. The compound further showed a CC50 with HEK293 of 24.1 µg/mL (≈ 117 µM).
Take `N#CC1(Br)C(=N)Oc2ccc3ccccc3c2C1c1ccccc1[N+](=O)[O-]` (centres undefined): the MIC against Cryptococcus neoformans, against Acinetobacter baumannii, in the test with Staphylococcus aureus, with Pseudomonas aeruginosa, with Candida albicans and against Klebsiella pneumoniae was greater than 32 µg/mL in each case. Besides, in the test with Escherichia coli, the MIC is greater than 32 µg/mL. This compound also displayed a CC50 in the test with HEK293 of 5.83 µg/mL (≈ 13.8 µM).
In the case of `OCc1ccc(O)c2ncccc12`, the MIC in the test on Cryptococcus neoformans was 16 µg/mL (≈ 91.3 µM); against Acinetobacter baumannii it was greater than 32 µg/mL; in the test on Staphylococcus aureus, greater than 32 µg/mL; in the test on Pseudomonas aeruginosa, 32 µg/mL (≈ 183 µM); in the test on Candida albicans, 16 µg/mL (≈ 91.3 µM); in the test on Klebsiella pneumoniae it was greater than 32 µg/mL. The compound further came in with an MIC with Escherichia coli greater than 32 µg/mL. The compound also displayed a CC50 in the test on HEK293 of 17.3 µg/mL (≈ 98.8 µM).
For `C#CCNCc1cc2cc(OCc3ccccc3)ccc2[nH]1.Cl`, the MIC against Cryptococcus neoformans, in the test on Acinetobacter baumannii, in the test on Staphylococcus aureus, against Pseudomonas aeruginosa, in the test on Candida albicans and in the test on Klebsiella pneumoniae was greater than 32 µg/mL in each case. The compound also yielded an MIC against Escherichia coli greater than 32 µg/mL. For the same compound, the CC50 in the test on HEK293 is 4.04 µg/mL.
In the case of `Oc1ccc(CCl)c2cccnc12`, the MIC was 16 µg/mL (≈ 82.6 µM) in the test with Cryptococcus neoformans; greater than 32 µg/mL with Acinetobacter baumannii; greater than 32 µg/mL against Staphylococcus aureus; 32 µg/mL (≈ 165 µM) in the test on Pseudomonas aeruginosa; greater than 32 µg/mL against Candida albicans; greater than 32 µg/mL against Klebsiella pneumoniae. Moreover, the MIC in the test on Escherichia coli is greater than 32 µg/mL. This compound gave a CC50 in the test on HEK293 of 5.81 µg/mL (≈ 30 µM).
In the case of `N#Cc1c(N)[n+]([O-])c2ccccc2[n+]1[O-]`, the MIC against Cryptococcus neoformans, in the test with Acinetobacter baumannii, with Staphylococcus aureus, against Pseudomonas aeruginosa, in the test with Candida albicans and against Klebsiella pneumoniae was greater than 32 µg/mL in each case. For the same compound, the MIC in the test with Escherichia coli is 16 µg/mL (≈ 79.1 µM). Moreover, in the test with HEK293, the CC50 is greater than 32 µg/mL.
Consider `COc1ccc(CCl)c2cccnc12`, for which the MIC against Cryptococcus neoformans is greater than 32 µg/mL; in the test with Acinetobacter baumannii, greater than 32 µg/mL; in the test on Staphylococcus aureus, greater than 32 µg/mL; in the test on Pseudomonas aeruginosa, greater than 32 µg/mL; against Candida albicans it was 32 µg/mL (≈ 154 µM); in the test with Klebsiella pneumoniae, greater than 32 µg/mL. In the test with Escherichia coli, this compound displayed an MIC greater than 32 µg/mL. In the test on HEK293, this compound returned a CC50 greater than 32 µg/mL.
In the case of `C#CCN(C)Cc1cc2cc(OCCCC3CCN(Cc4ccccc4)CC3)ccc2[nH]1.O=C(O)C(=O)O`, the MIC against Cryptococcus neoformans, against Acinetobacter baumannii, in the test on Staphylococcus aureus, with Pseudomonas aeruginosa, against Candida albicans and in the test on Klebsiella pneumoniae was greater than 32 µg/mL each time. This compound came in with an MIC with Escherichia coli greater than 32 µg/mL. The same compound returned a CC50 in the test on HEK293 of 13.4 µg/mL.
On to `N#C/C(=C\c1ccc([N+](=O)[O-])cc1)C(=O)c1ccccc1`, for which the MIC in the test on Cryptococcus neoformans is 32 µg/mL (≈ 115 µM); with Acinetobacter baumannii it was greater than 32 µg/mL; in the test with Staphylococcus aureus it was greater than 32 µg/mL; in the test with Pseudomonas aeruginosa it was greater than 32 µg/mL; against Candida albicans, greater than 32 µg/mL; with Klebsiella pneumoniae, greater than 32 µg/mL. Besides, the MIC against Escherichia coli is greater than 32 µg/mL. Also, the CC50 in the test with HEK293 is greater than 32 µg/mL.
As for `Nc1c2c(nc3c1CC(c1ccccc1)C(=O)N3)CCCC2` (centres undefined), the MIC with Cryptococcus neoformans, in the test on Acinetobacter baumannii, in the test with Staphylococcus aureus, against Pseudomonas aeruginosa, with Candida albicans and with Klebsiella pneumoniae was greater than 32 µg/mL throughout. In the test with Escherichia coli, the MIC was greater than 32 µg/mL. In the test with HEK293, this compound displayed a CC50 of 11.3 µg/mL (≈ 38.5 µM).
